Laboratory results published in patent US20030005927A1, “Process and device for inhalation of particulate medicaments” (priority 1996, published 2003).
Entries after “also recorded” stand apart in the source; their conditions may differ. Structures can show the parent of a compound that is named as a salt.

Assay: Spray drying of solutions; particle geometric diameter and hollow/solid structure by photomicrograph
Assay type: physicochemical
Conditions: for Geometric Diameter (average particle diameter) / Hollow or Solid: spray dried particles from aqueous solution; for Geometric Diameter (average particle diameter): VIRTIS spray dryer; for Hollow or Solid: photomicrographs
Protocol: Medicament powder of each of the two medicaments, albuterol sulfate and amiloride HCl (abbreviated herein as Alb S and Amil HCl, respectively), is employed in this example. Also, the excipient, lactose, is employed in this example. Aliquots of each of the medicaments, and also of lactose, are spray dried as follows.
15 g of Alb S (lot no. W 1946 FB) are dissolved in 300 ml of water to create a 5% solution. Similarly, 3.479 g of Amil HCl (lot no. 9007H 902) are diluted in water to 1000 ml to create a solution. Likewise, 15 g of lactose (lot no. 1NC25, 605 from Sheffield Products of Norwich, N.Y.) are diluted in water to 150 ml to create a solution.
Each solution is respectively spray dried using a VIRTIS™ (a spray dryer commercially available from The Virtis Company of Gardiner, N.Y.) with each of the air from the nozzle and from the blower set at its respective maximum value under the following conditions of temperature and rate, as summarized in Table A below: […]

Row | Geometric Diameter (average particle diameter) [μm] | Hollow or Solid (listed as lactose) | average particle diameter of the largest particulate (spray dried, photomicrographs FIGS. 6 and 7) | Molecule | Hollow or Solid | Hollow or Solid (HCl)
1 | 2 | spherical hollow particulates | about 17 μm | OC[C@H]1O[C@@H](O[C@H]2[C@H](O)[C@@H](O)C(O)O[C@@H]2CO)[C@H](O)[C@@H](O)[C@H]1O (some centres unmarked) [Lactose, lactose] | hollow spheres | 
2 | 1 to 5 |  |  | albuterol sulfate [Alb S] | dimpled solid structures; also recorded: dimpled solids | 
3 | 1 to 5 |  |  | N=C(N)NC(=O)c1nc(Cl)c(N)nc1N [Amil HCl, amiloride HCl] |  | spherical hollow particulates; also recorded: hollow spheres
